“Also recorded” adds a separate entry of the source.
These compounds were tested on M. bovis BCG Pasteur ATCC 35734 (assay: not given).
Type: cell-based, Mycobacterium bovis BCG

Structure (SMILES) | antimycobacterial activity (in words) | fold less potent than POA [fold] | MIC50 (MIC, concentration that inhibits fifty percent of growth) [µM]
c1cnc(-c2nnn[nH]2)cn1 [compound 12, 2-(1H-Tetrazol-5-yl)pyrazine] | inactive or weakly active | – | –
NC(=S)c1cnccn1 [compound 13] | inactive or weakly active | – | –
NS(=O)(=O)c1cnccn1 [compound 14] | inactive or weakly active | – | –
CC(=O)NS(=O)(=O)c1cnccn1 [compound 15, N-(Pyrazin-2-ylsulfonyl)acetamide] | inactive or weakly active | – | –
CC(=O)c1cnccn1 [compound 16] | eliminated activity | – | –
Nc1cncc(C(=O)O)n1 [compound 25, 6-amino-POA] | loss of activity | – | –
Cc1ccccc1-c1nccnc1C(=O)[O-].[Na+] [compound 36, Sodium 3-(o-tolyl)pyrazine-2-carboxylate] | completed obliterated activity | – | –
O=C([O-])c1cnc(-c2ccccc2)cn1.[Na+] [compound 39, Sodium 5-(phenyl)pyrazine-2-carboxylate] | eliminated activity | – | –
O=C([O-])c1cncc(-c2ccccc2)n1.[Na+] [compound 40, Sodium 6-phenylpyrazine-2-carboxylate] | – | ~2 | –
CCNc1cnc(C(=O)[O-])cn1.[Na+] [compound 42, Sodium 5-(ethylamino)pyrazine-2-carboxylate] | Loss of potency | – | –
O=C([O-])c1cnc(NC2CCC2)cn1.[Na+] [compound 48, Sodium 5-(cyclobutylamino)pyrazine-2-carboxylate] | Loss of potency | – | –
CCN(CC)c1nccnc1C(=O)[O-].[Na+] [compound 58, Sodium 3-(diethylamino)pyrazine-2-carboxylate] | loss of activity | – | –
O=C([O-])c1nccnc1N1CCCC1.[Na+] [compound 62, Sodium 3-(pyrrolidine-1-yl)pyrazine-2-carboxylate] | abolished activity | – | –
O=C([O-])c1nccnc1N1CCCCC1.[Na+] [compound 63, Sodium 3-(piperidin-1-yl)pyrazine-2-carboxylate] | abolished activity | – | –
O=C([O-])c1nccnc1N1CCOCC1.[Na+] [compound 64, Sodium 3-(morpholino)pyrazine-2-carboxylate] | abolished activity | – | –
O=C([O-])c1nccnc1N1CCSCC1.[Na+] [compound 65, Sodium 3-(thiomorpholino)pyrazine-2-carboxylate] | abolished activity | – | –
O=C([O-])c1nccnc1N1CCC2(CC1)CC2.[Na+] [compound 66, Sodium 3-(6-azaspiro[2,5]octan-6-yl)pyrazine-2-carboxylate] | abolished activity | – | –
CCCNc1cnc(C(=O)[O-])cn1.[Na+] [compound 70, Sodium 5-(n-propylamino)pyrazine-2-carboxylate] | Loss of potency | – | –
CC(C)Nc1cnc(C(=O)[O-])cn1.[Na+] [compound 71, Sodium 5-(2-propylamino)pyrazine-2-carboxylate] | Loss of potency | – | –
CCCCNc1cnc(C(=O)[O-])cn1.[Na+] [compound 72, Sodium 5-(n-butylamino)pyrazine-2-carboxylate] | – | – | 400
CCN(CC)c1cnc(C(=O)[O-])cn1.[Na+] [compound 73, Sodium 5-(diethylamino)pyrazine-2-carboxylate] | equipotent to the parent POA | – | –
O=C([O-])c1cnc(NC2CCCC2)cn1.[Na+] [compound 76, Sodium 5-(cyclopentylamino)pyrazine-2-carboxylate] | Loss of potency | – | –
O=C([O-])c1cncc(NC(=O)C2CCCCC2)n1.[Na+] [compound 80, Sodium 6-(cyclohexanecarboxamido)pyrazine-2-carboxylate] | obliterated activity | – | –

Each compound was assayed on M. bovis BCG mutant POA2 (PanD Leu132Arg) (assay: not given).
Type: cell-based, Mycobacterium bovis BCG

Structure (SMILES) | shift in growth inhibition potency against PanD mutant vs wildtype (in words)
Nc1nccnc1C(=O)O [compound 23] | minimal shift
Nc1cnc(C(=O)O)cn1 [compound 24] | moderate shift
CCCNc1nccnc1C(=O)[O-].[Na+] [compound 54, Sodium 3-(propylamino)pyrazine-2-carboxylate] | moderate shift
CC(C)Nc1nccnc1C(=O)[O-].[Na+] [compound 55, Sodium 3-(2-propylamino)pyrazine-2-carboxylate] | moderate shift
O=C([O-])c1nccnc1Nc1ccccc1.[Na+] [compound 59, Sodium 3-(anilino)pyrazine-2-carboxylate] | moderate shift

What follows are compounds tested against Mtb PanD (Mycobacterium tuberculosis, UniProt P9WIL3) (assay: biochemical).
Mtb PanD, sequence (P9WIL3 25-139): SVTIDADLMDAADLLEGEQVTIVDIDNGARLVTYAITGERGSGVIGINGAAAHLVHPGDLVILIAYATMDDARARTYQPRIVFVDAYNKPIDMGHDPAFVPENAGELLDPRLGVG
Mtb PanD, sequence (P9WIL3 1-24): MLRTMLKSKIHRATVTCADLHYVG
Type: binding

Structure (SMILES) | Kd [µM] | PanD binding (in words)
Nc1nccnc1C(=O)O [compound 23] | 37 to 47 | –
Nc1cnc(C(=O)O)cn1 [compound 24] | 37 to 47 | –
CCN(CC)c1nccnc1C(=O)[O-].[Na+] [compound 58, Sodium 3-(diethylamino)pyrazine-2-carboxylate] | – | no binding; also recorded: did not bind at all; also recorded: did not bind to PanD

Each compound was assayed on Vero cells (assay: not given).

Structure (SMILES) | cytotoxicity at higher concentrations
CC(C)(C)Nc1nccnc1C(=O)[O-].[Na+] [compound 56, Sodium 3-(tert-butylamino)pyrazine-2-carboxylate] | ~ 50%
